Tests used:
IDO = biological target: T1, IDO (Homo sapiens, UniProt P14902); assay: Hela cell-based IDO inhibitory activity test (IFNγ added); details: Hela cells with IFNγ, 48 hours incubation, OD 480 nm
T1 construct: endogenous in cells; host or cells: HeLa cells treated with IFNγ
Experimental: 2. Hela Cell-Based IDO Inhibitory Activity Test Method
The first step: cell plating. Prepare complete medium and mix well. Cell lines that are in good growth state are selected. Remove the cell culture flask from the incubator and check the cell name, media type and cell generation number on the bottle. The medium was discarded, digested with trypsin, and after digestion, the cells were neutralized with serum-containing medium, and the cells were blown to cause the cells to fall off. Pipette the cell suspension into a centrifuge tube and centrifuge at a speed of 800-1000 for 3-5 minutes. Aspirate the cell supernatant from the centrifuge tube. Add an appropriate volume of medium to the tube and gently blister to resuspend the cells. Count using a Vi-Cell XR cytometer. Adjust the cell suspension to the appropriate concentration. The cell suspension was added to a white-well 96-well plate at 80 μl/well according to the schematic below. The second step: preparation and addition of the compound. Compounds were formulated in DMSO at 600 μM and the compounds were diluted in DMSO according to a multiple of the following table to give 6 concentration gradients of the compound. The 200× compound prepared in DMSO was formulated into a 10× dilution solution in proportion to the corresponding cell culture medium. After 24 hours of cell seeding, 10 μL of 10× corresponding compound dilution and 10 μL of 10×IFNγ were added to each well. Incubate for 48 hours in a 37° C. incubator. The third step: detection and analysis. Cell morphology was observed under an inverted microscope. 80 μL of the supernatant was added to a 3894 plate, 10 μL of 6.1 N trichloroacetic acid was added to each well, shaken for 2 minutes, and placed in a 50-degree incubator for 30 minutes. Centrifuge, 2500 rpm for 10 minutes.
Take 70 μL of the supernatant and transfer to a 3635 UV plate, add 70 μL of the reaction solution, and shake for 2 minutes to make the reaction uniform. Use EnSpire (PE) to detect data with an OD of 480 nm. The cell culture plate 3903 was allowed to stand at room temperature for 30 minutes. 100 μL/well of the cell activity detecting reagent was added to the culture plate. Mix on a shaker for 2 minutes to induce cell lysis. The 96-well plate was allowed to stand at room temperature for 10 minutes to stabilize the luminescence signal. Paste the white base film on the bottom of the plate and tested with Flexstation3 plate (the relevant setting is: Illumination, integration time 500 ms). Record the experimental results obtained from the analysis.
The IC50 value is expressed in the following manner: […]

hIDO1 = biological target: T2, hIDO1 (Homo sapiens, UniProt P14902); assay: IDO inhibition activity based on HEK293T cells transfected with hIDO1 plasmid; assay type: cell-based; details: HEK293T cells transfected with hIDO1, 16 hours incubation, OD 480 nm; read-out: IDO inhibitory activity of HEK293T cells (IC50)
T2 construct: expressed in transfected cells; host or cells: HEK293T (293T) cells, transient transfection with Fugene 6
Experimental: 1. Test Method for IDO Inhibition Activity Based on HEK293T Cells:
The first step: cell transfection and plating. 5×10^6 293T cells were separately seeded in two T75 flasks and incubated overnight at 37° C. in a 5% CO2 incubator. […] of a mixture containing 1.5 μg of hIDO1 plasmid and 300 μL of opti-MEM was made into a mixture A; 18 μL of liposome fugene 6 was mixed with 300 μL of opti-MEM to prepare a mixture B, and allowed to stand at room temperature for 5 minutes. Mixture A and Mix B were mixed, placed at room temperature for 20 minutes, added to a 293T culture flask, and the other flask was used as a control and incubated overnight at 37° C. in a 5% CO2 incubator. The medium was discarded, digested with trypsin, and after digestion, the cells were neutralized with serum-containing medium, and the cells were blown to cause the cells to fall off. Pipette the cell suspension into a centrifuge tube and centrifuge at a speed of 800-1000 for 1-3 minutes. Aspirate the cell supernatant from the centrifuge tube. Add an appropriate volume of medium to the tube and gently blister to resuspend the cells. Count using a Vi-Cell XR cytometer. Adjust the cell suspension to the appropriate concentration. The cell suspension was added to a white-well 96-well plate at 80 μL/well. The second step: preparation and addition of the compound. Compounds were formulated in DMSO at 600 μM and the compounds were diluted in DMSO according to a multiple of the following table to give 6 concentration gradients of the compound. The 200× compound prepared in DMSO was formulated into a 10× dilution solution in proportion to the corresponding cell culture medium. Add 10 μL of 10× corresponding compound dilution and 10 μL of 10×TRP to each well, except for Min. Incubate for 16 hours in a 37° C. incubator. The third step: detection and analysis. Cell morphology was observed under an inverted microscope. 80 μL of the supernatant was added to a 3894 plate, and 10 μL of 6.1 N trichloroacetic acid was added to each well, shaken for 2 minutes, and placed in a 50-degree incubator for 30 minutes. Centrifuged at 2500 rpm for 10 minutes. Take 70 μL of the supernatant and transfer to a 3635 UV plate, add 70 μL of the reaction solution, and shake for 2 minutes to make the reaction uniform. Use EnSpire (PE) to detect data with an OD of 480 nm. The cell culture plate 3903 was allowed to stand at room temperature for 30 minutes. 100 μL/well of the cell activity detecting reagent was added to the culture plate. Mix on a shaker for 2 minutes to induce cell lysis. The 96-well plate was allowed to stand at room temperature for 10 minutes to stabilize the luminescence signal. Paste the white base film on the bottom of the plate and the plate was tested in Flexstation 3 (the relevant setting is: Illumination, integration time 500 ms). Record the experimental results obtained from the analysis.
The IC50 value is expressed by: A: IC50 value≤10 nM; B: 10 nM<IC50 value≤50 nM; C: 50 nM<IC50 value≤100 nM; D: IC50 value>100 nM.

T2 sequence (P14902 whole entry): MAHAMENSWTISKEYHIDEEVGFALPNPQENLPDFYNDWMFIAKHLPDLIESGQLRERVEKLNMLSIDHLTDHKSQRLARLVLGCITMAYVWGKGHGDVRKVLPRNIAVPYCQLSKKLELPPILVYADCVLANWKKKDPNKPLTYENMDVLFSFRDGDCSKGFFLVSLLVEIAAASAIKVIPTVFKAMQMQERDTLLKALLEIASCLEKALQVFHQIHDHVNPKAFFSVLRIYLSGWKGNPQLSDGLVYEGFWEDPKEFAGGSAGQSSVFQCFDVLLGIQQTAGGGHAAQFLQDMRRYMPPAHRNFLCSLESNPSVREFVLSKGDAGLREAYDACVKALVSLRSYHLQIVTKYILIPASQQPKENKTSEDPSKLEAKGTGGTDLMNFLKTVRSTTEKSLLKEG
T1 sequence (P14902 whole entry): as above

Row | Compound | IC50 (IDO) [nM] | IC50 (hIDO1) [nM]
1 | C/C(C(=O)Nc1ccc(Cl)cc1)=C1\C[C@@H]2C[C@H](c3ccnc4ccc(F)cc34)C[C@@H]2C1 [Compound 68] | ≤ 5 | ≤ 10
2 | C#Cc1ccc(NC(=O)C(C)[C@H]2C[C@H]3C[C@@H](c4ccnc5ccc(F)cc45)C[C@H]3C2)cc1 (stereo partly shown) [Compound 34] | ≤ 5 | ≤ 10
3 | C#Cc1ccc(NC(=O)C(C)(C)[C@H]2C[C@H]3C[C@@H](c4ccnc5ccc(F)cc45)C[C@H]3C2)cn1 [Compound 87] | ≤ 5 | ≤ 10
4 | N#Cc1ccc(NC(=O)C2([C@@H]3C[C@H]4C[C@@H](c5ccnc6ccc(F)cc56)C[C@H]4C3)CC2)nc1 [Compound 94] | ≤ 5 | 10 to 50
5 | O=C(C[C@@H]1C[C@@H]2C[C@@H](Oc3ccnc4ccccc34)C[C@@H]2C1)Nc1ccc(Cl)cc1 [Compound 51] | > 100 | > 100
6 | CC(C(=O)Nc1ccc(Cl)nc1)[C@@H]1C[C@]2(C)C[C@H](c3ccnc4ccc(F)cc34)C[C@]2(C)C1 (stereo partly shown) [Compound 42] | ≤ 5 | 10 to 50
7 | O=C(Cc1ccc(CC(C(=O)Nc2ccc(Cl)cc2)[C@H]2CC[C@@H](c3ccnc4ccc(F)cc43)CC2)cc1)NO (stereo partly shown) [Compound 10] | > 100 | > 100
8 | O=C(Nc1ccc(Cl)cn1)C1([C@H]2C[C@H]3C[C@@H](c4ccnc5ccc(F)cc45)C[C@H]3C2)CC1 [Compound 95] | ≤ 5 | ≤ 10
9 | CC(C)(C(=O)Nc1ccc(Cl)nc1)[C@H]1C[C@H]2C[C@@H](c3ccnc4ccc(F)cc34)C[C@H]2C1 [Compound 85] | 5 to 25 | ≤ 10
10 | CC(C(=O)Nc1ccc(Cl)nc1)[C@H]1C[C@H]2C[C@@H](c3ccnc4ccc(F)cc34)C[C@H]2C1 (stereo partly shown) [Compound 27] | ≤ 5 | 10 to 50
11 | O=C(C[C@@H]1C[C@@H]2C[C@H](c3ccnc4ccc(F)cc34)C[C@@H]2C1)NC1CCC(F)(F)CC1 [Compound 12] | 25 to 100 | > 100
12 | CC(C(=O)Nc1ccc(Cl)cc1)[C@@H]1C[C@@H]2CN(c3ccnc4ccc(F)cc34)C[C@@H]2C1 (stereo partly shown) [Compound 9] | > 100 | > 100
13 | O=C(Nc1ccc(Cl)cn1)C1([C@@H]2C[C@H]3C[C@@H](c4ccnc5ccc(F)cc45)C[C@H]3C2)CC1 [Compound 92] | ≤ 5 | ≤ 10
14 | C#Cc1ccc(NC(=O)C2([C@H]3C[C@H]4C[C@@H](c5ccnc6ccc(F)cc56)C[C@H]4C3)CC2)nc1 [Compound 96] | ≤ 5 | ≤ 10
15 | CC(C(=O)Nc1ccc(C#N)cn1)[C@H]1C[C@H]2C[C@@H](c3ccnc4ccc(F)cc34)C[C@H]2C1 (stereo partly shown) [Compound 73] | ≤ 5 | ≤ 10
16 | CC(C(=O)Nc1ccc(Cl)cc1)C1=C[C@H]2C[C@@H](c3ccnc4ccc(F)cc34)C[C@H]2C1 (stereo partly shown) [Compound 38] | ≤ 5 | ≤ 10
17 | CC(C(=O)Nc1ccc(Cl)cn1)[C@H]1C[C@H]2CC(c3ccnc4ccc(F)cc34)C[C@H]2C1 (mixture of isomers) [Compound 26] | ≤ 5 | 10 to 50

Now from value to molecule:

Row | IC50 (IDO) [nM] | IC50 (hIDO1) [nM] | Compound
18 | 5 to 25 | 10 to 50 | O=C(C[C@@H]1C[C@H]2CC(c3ccnc4ccc(F)cc34)C[C@H]2C1)Nc1ccc(Cl)nc1 (stereo partly shown) [Compound 22]
19 | ≤ 5 | ≤ 10 | O=C(C[C@H]1C[C@@H]2C[C@H](c3ccnc4ccc(F)cc34)C[C@@H]2C1)Nc1ccc(Cl)cc1 [Compound 5]
20 | 5 to 25 | 10 to 50 | O=C(C[C@@H]1C[C@@H]2C[C@@H](c3ccnc4ccc(F)cc34)C(O)[C@@H]2C1)Nc1ccc(Cl)cc1 (stereo partly shown) [Compound 50]
21 | ≤ 5 | ≤ 10 | C[C@@H](C(=O)Nc1ccc(Cl)cc1)[C@H]1C[C@H]2C[C@@H](c3ccnc4ccc(F)cc34)C[C@H]2C1 (single isomer, unassigned) [Compound 1A]
22 | 5 to 25 | 10 to 50 | O=C(C[C@@H]1C[C@@H]2C[C@H](c3ccnc4ccc(F)cc34)C[C@@H]2C1)Nc1ccc(Cl)cc1 [Compound 2]
23 | ≤ 5 | ≤ 10 | CC(C(=O)Nc1ccc(Cl)cc1)[C@H]1C[C@H]2C[C@@H](c3ccnc4ccc(F)cc34)C[C@H]2C1 (mixture of isomers) [Compound 1]
24 | ≤ 5 | 10 to 50 | O=C(CC1=C[C@H]2C[C@@H](c3ccnc4ccc(F)cc34)C[C@H]2C1)Nc1ccc(Cl)cc1 (racemic) [Compound 57]
25 | ≤ 5 | 10 to 50 | CC(C(=O)Nc1ccc(Cl)cc1)[C@@H]1C[C@H]2C[C@@H](c3ccnc4ccc(F)cc34)C[C@H]2C1 (stereo partly shown) [Compound 4]
26 | ≤ 5 | ≤ 10 | C[C@H](C(=O)Nc1ccc(Cl)cc1)[C@H]1C[C@H]2C[C@@H](c3ccnc4ccc(F)cc34)C[C@H]2C1 (single isomer, unassigned) [Compound 1B]
